Test results from PMC9460261, “Need for a Standardized Translational Drug Development Platform: Lessons Learned from the Repurposing of Drugs for COVID-19” (Microorganisms, 2022).
Where a name gives a salt, the structure may show the parent alone. Read-outs that look alike come from different tables or passages of the source.

Legend:
[1] = tested on: SARS-CoV-2 in Mucilair human airway epithelia; format: cell-based, SARS-CoV-2 BavPat1/2020
[2] = tested on: SARS-CoV-2 in human airway epithelial cells at air-liquid interface; format: cell-based, SARS-CoV-2_B.1.1.7
[3] = tested on: SARS-CoV-2 in human airway epithelial cells at air-liquid interface; parameters: method as in earlier work; conditions: 4 dpi, cited from earlier work

## CC1(C)C(=O)N(c2ccc(C#N)c(C(F)(F)F)c2F)C(=S)N1c1ccc(CCCc2ncco2)nc1 [Proxalutamide, proxalutamide]
[1]; 10 uM, […]
  Log Viral titer Reduction (Compared to Virus Control), HAEC/ALI (BavPat variant): 0.11 (+-0.6) log

## COC(=O)N[C@H](C(=O)N[C@@H](Cc1ccccc1)[C@@H](O)CN(Cc1ccc(-c2ccccn2)cc1)NC(=O)[C@@H](NC(=O)OC)C(C)(C)C)C(C)(C)C [Atazanavir, atazanavir]
[1]; 10 uM, […]
  Log Viral titer Reduction (Compared to Virus Control), HAEC/ALI (BavPat variant): 0.09 (+-0.64) log

## bemnifosbuvir
[2]
  Log Viral Load Reduction (Compared to Virus Control and Background), HAEC/ALI (alpha variant): -0.35 (+-1.2) log
[1]; 0.1 uM, […]
  Log Viral titer Reduction (Compared to Virus Control), HAEC/ALI (BavPat variant): -0.12 (+-0.4) log
[1]; 0.3 uM, […]
  Log Viral titer Reduction (Compared to Virus Control), HAEC/ALI (BavPat variant): -0.38 (+-0.18) log

## CC(=O)Oc1ccccc1C(=O)Nc1ncc([N+](=O)[O-])s1 [Nitazoxanide, nitazoxanide]
[1]
  Activity, HAEC/ALI (BavPat variant): Yes
  Log Viral titer Reduction (Compared to Virus Control), HAEC/ALI (BavPat variant): -1.59 (+-0.72) log

## COc1ccc2cc1Oc1ccc(cc1)C[C@H]1c3c(cc4c(c3Oc3cc5c(cc3OC)CCN(C)[C@@H]5C2)OCO4)CCN1C [Cepharanthine, cepharanthine]
[2]
  Log Viral Load Reduction (Compared to Virus Control and Background), HAEC/ALI (alpha variant): 0.92 (+-0.97) log

## NC(=O)c1nc(F)c[nH]c1=O [Favipiravir, favipiravir]
[2]; 300 uM, […]
  Log Viral Load Reduction (Compared to Virus Control and Background), HAEC/ALI (alpha variant): -0.4 (+/-0.2) log

## CC(C)C(=O)OC[C@H]1O[C@@H](n2ccc(NO)nc2=O)[C@H](O)[C@@H]1O [Molnupiravir, molnupiravir]
[2]
  Log Viral Load Reduction (Compared to Virus Control and Background), HAEC/ALI (alpha variant): 1.9 (+-1.3) log
[2]; 3 uM, […], § variability observed
  Activity, HAEC/ALI (alpha variant): YES
[2]; 10 uM, […]
  Activity, HAEC/ALI (alpha variant): YES
  Log Viral Load Reduction (Compared to Virus Control and Background), HAEC/ALI (alpha variant): 5.4 (+-1.5) log
[1]
  Activity, HAEC/ALI (BavPat variant): YES
[1]; 0.3 uM, […]
  Log Viral titer Reduction (Compared to Virus Control), HAEC/ALI (BavPat variant): -0.39 (+-0.48) log

## CCN(CC)Cc1cc(Nc2ccnc3cc(Cl)ccc23)ccc1O [Amodiaquine, amodiaquine]
[1]; 10 uM, […]
  Log Viral titer Reduction (Compared to Virus Control), HAEC/ALI (BavPat variant): -0.51 (+-1.60) log

## Nc1c(Br)cc(Br)cc1CN[C@H]1CC[C@H](O)CC1 [Ambroxol, ambroxol]
[2]
  Log Viral Load Reduction (Compared to Virus Control and Background), HAEC/ALI (alpha variant): –1.0 (+-0.71) log

## CC(C)OC(=O)[C@H](C)N[P@](=O)(OC[C@H]1O[C@@H](n2ccc(=O)[nH]c2=O)[C@](C)(F)[C@@H]1O)Oc1ccccc1 [Sofosbuvir, sofosbuvir]
[2]; 10 uM, […]
  Log Viral Load Reduction (Compared to Virus Control and Background), HAEC/ALI (alpha variant): -0.56 (+-0.10) log

## OC(c1cc(C(F)(F)F)nc2c(C(F)(F)F)cccc12)C1CCCCN1 (stereo not shown) [Mefloquine, mefloquine]
[2]; 10 uM, […]
  Log Viral Load Reduction (Compared to Virus Control and Background), HAEC/ALI (alpha variant): 0.45 (+-2.02) log

## ivermectin
[2]; 10 uM, […]
  Activity, HAEC/ALI (alpha variant): Toxic
  Log Viral Load Reduction (Compared to Virus Control and Background), HAEC/ALI (alpha variant): > 4.09 log

## COCCCC/C(=N\OCCN)c1ccc(C(F)(F)F)cc1 [Fluvoxamine maleate, fluvoxamine maleate]
[2]; 10 uM, […]
  Log Viral Load Reduction (Compared to Virus Control and Background), HAEC/ALI (alpha variant): +Inc
[1]; 10 uM, […]
  Log Viral titer Reduction (Compared to Virus Control), HAEC/ALI (BavPat variant): 0.2(+-0.1) log

## COc1cc2c(c(OC)c1OC)-c1ccc(OC)c(=O)cc1[C@@H](NC(C)=O)CC2 [Colchicine, colchicine]
[2]
  Log Viral Load Reduction (Compared to Virus Control and Background), HAEC/ALI (alpha variant): -0.2 (+-0.44) log

## O=c1nc(NO)ccn1[C@@H]1O[C@H](CO)[C@@H](O)[C@H]1O [EIDD-1931]
[2]
  Log Viral Load Reduction (Compared to Virus Control and Background), HAEC/ALI (alpha variant): +Inc
[2]; 10 uM, […]
  Log Viral Load Reduction (Compared to Virus Control and Background), HAEC/ALI (alpha variant): +Inc

## CC(=O)CCCCn1c(=O)c2c(ncn2C)n(C)c1=O [Pentoxyfilline, pentoxyfilline]
[1]; 10 uM, […]
  Log Viral titer Reduction (Compared to Virus Control), HAEC/ALI (BavPat variant): 0.17(+-0.32) log

## CN(C)C(=O)COC(=O)Cc1ccc(OC(=O)c2ccc(NC(=N)N)cc2)cc1 [Camostat mesylate, camostat mesylate]
[2]
  Activity, HAEC/ALI (alpha variant): YES
  Log Viral Load Reduction (Compared to Virus Control and Background), HAEC/ALI (alpha variant): > 1.7 log

## CCCN(CCC)S(=O)(=O)c1ccc(C(=O)O)cc1 [Probenecid, probenecid]
[2]; 10 uM, […]
  Log Viral Load Reduction (Compared to Virus Control and Background), HAEC/ALI (alpha variant): 0.34 (+-1.0) log

## COC(=O)N[C@H](C(=O)N1CCC[C@H]1c1nc(-c2ccc(-c3ccc(-c4c[nH]c([C@@H]5CCCN5C(=O)[C@@H](NC(=O)OC)C(C)C)n4)cc3)cc2)c[nH]1)C(C)C [Daclatasvir, daclatasvir]
[2]; 10 uM, […]
  Log Viral Load Reduction (Compared to Virus Control and Background), HAEC/ALI (alpha variant): 0.17 (+-0.84) log

## CNCCC(Oc1ccc(C(F)(F)F)cc1)c1ccccc1 (stereo not shown) [Fluoxetine, fluoxetine]
[2]
  Log Viral Load Reduction (Compared to Virus Control and Background), HAEC/ALI (alpha variant): -0.12 (+-0.10)
[1]
  Log Viral titer Reduction (Compared to Virus Control), HAEC/ALI (BavPat variant): 0.68 (+-0.11)

## Cc1c(O)cccc1C(=O)N[C@@H](CSc1ccccc1)[C@H](O)CN1C[C@H]2CCCC[C@H]2C[C@H]1C(=O)NC(C)(C)C [Nelfinavir, nelfinavir]
[2]; 10 uM, […]
  Activity, HAEC/ALI (alpha variant): YES
  Log Viral Load Reduction (Compared to Virus Control and Background), HAEC/ALI (alpha variant): 3.2 (+-1.4) log

## CC(C)(C)[C@H](NC(=O)C(F)(F)F)C(=O)N1C[C@H]2[C@@H]([C@H]1C(=O)N[C@H](C#N)C[C@@H]1CCNC1=O)C2(C)C [Nirmatrelvir, nirmatrelvir]
[3]; 0.03 uM
  Log Viral Load Reduction (Compared to Virus Control and Background), HAEC/ALI (alpha variant): -0.30 (+-0.41) log
[3]; 0.1 uM
  Log Viral Load Reduction (Compared to Virus Control and Background), HAEC/ALI (alpha variant): 1.9 (+-1.6) log
[3]; 0.1 uM, § variability observed
  Activity, HAEC/ALI (alpha variant): YES
[3]; 1 uM
  Activity, HAEC/ALI (alpha variant): YES
  Log Viral Load Reduction (Compared to Virus Control and Background), HAEC/ALI (alpha variant): > 3.8 log
